Source: publication PMC5820588, “Isolation and Biological Evaluation of Prenylated Flavonoids from Maclura pomifera” (Evidence-based Complementary and Alternative Medicine : eCAM, 2018)

Key:
[1] = target: T1, recombinant human monoamine oxidase-A (Homo sapiens, UniProt P21397); experiment: MAO-A inhibition, kynuramine deamination assay; type: biochemical; settings: kynuramine 80 μM, pH 7.4, 37°C; mean ±SD of triplicate
T1 construct: purchased BD Biosciences (Bedford, MA, USA)
T1 sequence (P21397 1-527): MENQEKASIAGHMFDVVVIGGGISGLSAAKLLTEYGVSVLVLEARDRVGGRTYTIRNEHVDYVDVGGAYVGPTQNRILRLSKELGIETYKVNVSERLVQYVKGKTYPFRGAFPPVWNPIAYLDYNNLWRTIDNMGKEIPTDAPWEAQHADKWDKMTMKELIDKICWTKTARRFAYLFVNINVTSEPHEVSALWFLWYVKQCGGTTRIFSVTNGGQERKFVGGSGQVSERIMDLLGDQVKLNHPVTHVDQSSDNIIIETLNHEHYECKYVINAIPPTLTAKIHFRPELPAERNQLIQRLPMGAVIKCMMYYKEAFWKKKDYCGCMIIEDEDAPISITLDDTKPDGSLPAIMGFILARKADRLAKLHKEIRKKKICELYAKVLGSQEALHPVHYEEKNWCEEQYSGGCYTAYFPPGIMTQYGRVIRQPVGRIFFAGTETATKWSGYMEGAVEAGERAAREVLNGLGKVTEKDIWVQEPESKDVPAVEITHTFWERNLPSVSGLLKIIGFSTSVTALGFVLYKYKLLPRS
Method: (§1) The inhibitory effects of the chemical components of M. pomifera (L.) on MAO-A and MAO-B were determined via the kynuramine deamination assay, where it was adapted for 96-well plates as described earlier. A fixed concentration of the substrate and varying concentrations of the inhibitor were used to determine the IC50 value at the point where 50% inhibition of the catalytic activity of the enzyme occurred. For MAO-A, the substrate (kynuramine) concentration of 80 μM was chosen, since the KM value of substrate binding reported previously was approximately 40 μM [23]. […] Similarly, for MAO-B, a substrate (kynuramine) concentration of 50 μM was chosen. The assay was performed with the addition of the inhibitor. Inhibition was calculated as percent of the product formation compared to the corresponding control (enzyme-substrate reaction) without the inhibitors. The enzyme reactions were carried out in 0.1 M potassium phosphate buffer at pH 7.4. Reaction mixtures contained 5 μg/mL of MAO-A (18.75 μL in buffer) and 10 μg/mL of MAO-B (18.75 μL in buffer). The compounds were dissolved in DMSO and diluted in buffer. The total reaction mixture volume was 75 μL, yielding a final DMSO concentration of 1.0% in the reaction mixture. The reaction mixtures were preincubated for 10 min at 37°C followed by the addition of MAO-A/MAO-B to initiate the reactions. The reaction mixtures were incubated for 20 min at 37°C and stopped by the addition of 28 μL of 2 N NaOH. The formation of 4-hydroxyquinoline was determined fluorometrically by Spectra Max M5 fluorescence plate reader (Molecular Devices, Sunnyvale, CA, USA) with an excitation and emission wavelength of 320 nm and 380 nm, respectively, using the Soft Max Pro program. Appropriate controls were set up to check the interference with the fluorescence measurements. […] The determination of IC50 values for inhibition of MAO-A and MAO-B by the M. pomifera (L.) compounds was performed using a fixed concentration of the substrate and varying the concentration of the inhibitor.
(§2) The compounds isolated from M. pomifera (L.) fruits were tested for their inhibitory effect against recombinant human MAO isoforms (MAO-A and MAO-B) in vitro. The enzymatic activity of MAO-A and MAO -B was determined via a fluorescence based method.

[2] = target: T2, recombinant human monoamine oxidase-B (Homo sapiens, UniProt P27338); experiment: MAO-B inhibition, kynuramine deamination assay; type: biochemical; settings: for IC50: kynuramine 50 μM, pH 7.4, 37°C, mean ±SD of triplicate; for SI index MAO-A/B: ratio of MAO-A IC50 to MAO-B IC50; for Selectivity of MAO inhibition: MAO-B versus MAO-A
T2 construct: purchased BD Biosciences (Bedford, MA, USA)
T2 sequence (P27338 1-520): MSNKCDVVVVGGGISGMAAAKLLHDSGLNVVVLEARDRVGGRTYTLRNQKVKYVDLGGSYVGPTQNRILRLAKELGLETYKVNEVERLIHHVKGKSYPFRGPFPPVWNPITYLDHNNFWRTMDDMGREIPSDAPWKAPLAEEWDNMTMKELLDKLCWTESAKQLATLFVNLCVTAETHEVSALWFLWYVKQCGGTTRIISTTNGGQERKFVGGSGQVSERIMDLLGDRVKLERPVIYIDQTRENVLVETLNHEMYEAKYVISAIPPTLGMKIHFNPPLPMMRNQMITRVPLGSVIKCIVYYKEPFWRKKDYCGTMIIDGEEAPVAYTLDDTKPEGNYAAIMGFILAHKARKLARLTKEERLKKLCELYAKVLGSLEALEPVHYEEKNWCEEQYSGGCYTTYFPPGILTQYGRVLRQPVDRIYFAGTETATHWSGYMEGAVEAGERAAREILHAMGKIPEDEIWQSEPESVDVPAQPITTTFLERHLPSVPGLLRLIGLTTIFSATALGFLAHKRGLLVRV
Method: as §1, §2

CB1 receptor = CB1 receptor (Homo sapiens, UniProt P21554); experiment: Cannabinoid receptor assay, CB1 (CP-55940 as control); type: binding
Method: (§3) The affinities of the total extracts and the isolated compounds towards cannabinoid and opioid receptors were assessed according to the published method.
(§4) The affinities of the total extracts and the isolated compounds towards cannabinoid and opioid receptors were assessed using CP-55940 and Naloxone as controls for cannabinoid and opioid receptors assays, respectively.

CB2 receptor = CB2 receptor (Homo sapiens, UniProt P34972); experiment: Cannabinoid receptor assay, CB2 (CP-55940 as control); type: binding
Method: as §3, §4

κ opioid receptor = κ opioid receptor (Homo sapiens, UniProt P41145); experiment: Opioid receptor assay, κ (Naloxone as control); type: binding; settings: negative value read as possibly allosteric
Method: as §3, §4

μ opioid receptor = μ opioid receptor (Homo sapiens, UniProt P35372); experiment: Opioid receptor assay, μ (Naloxone as control); type: binding; settings: negative value read as possibly allosteric
Method: as §3, §4

Sequence of CB2 receptor (P34972 whole entry): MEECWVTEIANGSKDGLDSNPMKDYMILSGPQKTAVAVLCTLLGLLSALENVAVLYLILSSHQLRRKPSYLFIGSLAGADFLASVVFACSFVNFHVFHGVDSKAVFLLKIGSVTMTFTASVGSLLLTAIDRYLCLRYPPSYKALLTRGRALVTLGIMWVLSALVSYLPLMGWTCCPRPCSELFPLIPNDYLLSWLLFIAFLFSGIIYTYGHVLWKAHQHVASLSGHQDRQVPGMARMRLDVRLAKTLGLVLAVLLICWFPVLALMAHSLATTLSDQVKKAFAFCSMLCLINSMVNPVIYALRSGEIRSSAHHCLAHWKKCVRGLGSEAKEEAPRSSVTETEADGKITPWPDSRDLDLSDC
Sequence of CB1 receptor (P21554 whole entry): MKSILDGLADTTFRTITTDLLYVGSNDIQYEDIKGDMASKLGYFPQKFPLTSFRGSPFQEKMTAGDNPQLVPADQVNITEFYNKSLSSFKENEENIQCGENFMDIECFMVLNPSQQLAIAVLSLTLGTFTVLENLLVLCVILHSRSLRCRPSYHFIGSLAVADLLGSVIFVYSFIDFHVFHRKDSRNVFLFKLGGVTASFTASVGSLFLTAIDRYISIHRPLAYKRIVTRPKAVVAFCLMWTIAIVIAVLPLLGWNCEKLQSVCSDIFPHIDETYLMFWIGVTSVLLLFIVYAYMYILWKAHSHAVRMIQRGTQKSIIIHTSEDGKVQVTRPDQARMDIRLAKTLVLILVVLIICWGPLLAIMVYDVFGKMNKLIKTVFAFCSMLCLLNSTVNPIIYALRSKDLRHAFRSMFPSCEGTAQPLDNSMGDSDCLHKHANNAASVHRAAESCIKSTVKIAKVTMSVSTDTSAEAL
Sequence of μ opioid receptor (P35372 whole entry): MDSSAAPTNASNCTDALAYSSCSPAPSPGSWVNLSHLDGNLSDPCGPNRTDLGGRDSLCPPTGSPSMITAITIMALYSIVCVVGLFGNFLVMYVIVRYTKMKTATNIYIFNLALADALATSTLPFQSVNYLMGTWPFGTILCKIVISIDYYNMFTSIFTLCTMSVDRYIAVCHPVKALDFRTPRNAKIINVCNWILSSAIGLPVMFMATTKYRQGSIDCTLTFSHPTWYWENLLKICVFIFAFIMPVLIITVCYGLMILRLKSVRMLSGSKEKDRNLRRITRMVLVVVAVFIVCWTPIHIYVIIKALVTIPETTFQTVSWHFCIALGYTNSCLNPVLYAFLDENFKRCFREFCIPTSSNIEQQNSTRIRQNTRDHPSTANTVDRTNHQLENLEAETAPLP
Sequence of κ opioid receptor (P41145 whole entry): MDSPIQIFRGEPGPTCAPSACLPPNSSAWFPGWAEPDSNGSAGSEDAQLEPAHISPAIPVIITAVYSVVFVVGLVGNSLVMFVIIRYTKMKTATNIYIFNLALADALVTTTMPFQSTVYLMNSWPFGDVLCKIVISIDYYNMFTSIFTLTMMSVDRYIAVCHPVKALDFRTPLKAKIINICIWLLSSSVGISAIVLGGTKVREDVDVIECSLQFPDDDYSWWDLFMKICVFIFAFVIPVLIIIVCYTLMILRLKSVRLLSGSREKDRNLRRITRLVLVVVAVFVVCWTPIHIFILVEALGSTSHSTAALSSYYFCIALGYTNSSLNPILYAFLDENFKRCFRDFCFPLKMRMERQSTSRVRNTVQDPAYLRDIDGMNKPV

SMILES | IC50 [1] [µM] | IC50 [2] [µM] | SI index MAO-A/B [2] | IC50 (CB1 receptor) [µM] | CB1 % displacement (CB1 receptor; 10 μM) [%] | CB1 % displacement (CB1 receptor; concentration not given) [%] | IC50 (CB2 receptor) [µM] | Ki (CB2 receptor) [µM] | CB2 % displacement (CB2 receptor; 10 μM) [%] | CB2 % displacement (CB2 receptor; concentration not given) [%] | Selectivity of MAO inhibition [2] | Ki (CB1 receptor) [µM] | κ opioid receptor % displacement (κ opioid receptor) [%] | μ opioid receptor % displacement (μ opioid receptor) [%]
COC(c1c2c(c(O)c3c(=O)c(-c4ccc(O)c(O)c4)coc13)C=CC(C)(C)O2)C1OC1(C)C (stereo not drawn) [Kazosajin IV, 3-(3,4-Dihydroxyphenyl)-10-((3,3-dimethyloxiran-2-yl)(methoxy)methyl)-5-hydroxy-8,8-dimethylpyrano[3,2-g]chromen-4(8H)-one] | 71.2 ± 2.61 | 17.7 ± 1.06 | 4.032 | – | – | – | – | – | – | – | – | – | – | –
CC(C)=CCc1c2c(c(O)c3c(=O)c(-c4ccc(O)cc4)coc13)C=CC(C)(C)O2 [Warangalone (VII), warangalone] | > 100 | 5.69 ± 0.38 | – | 1.67 | 111.3 | 111.3 | 4.44 | 2.22 | 77.6 | 77.57 | selective inhibition of MAO-B | – | – | –
CC(C)=CCc1c2c(c3occ(-c4ccc(O)c(O)c4)c(=O)c3c1O)C=CC(C)(C)O2 [Pomiferin (V), pomiferin] | > 100 | > 100 | – | 2.11 | 107.2 | 107.2 | 1.32 | – | 66.0 | 66.0 | – | 1.05 | – | –
CC(C)=CCc1c2c(c3occ(-c4ccc(O)cc4)c(=O)c3c1O)C=CC(C)(C)O2 [Osajin (VIII), osajin] | > 100 | > 100 | – | 3.86 | 93.9 | 93.9 | 7.65 | 3.82 | 52.7 | 52.7 | – | 1.93 | – | –
COC(Cc1c2c(c(O)c3c(=O)c(-c4ccc(O)c(O)c4)coc13)C=CC(C)(C)O2)C(C)(C)O (stereo not drawn) [Kazosajin I, 3-(3,4-Dihydroxyphenyl)-5-hydroxy-10-(3-hydroxy-2-methoxy-3-methylbutyl)-8,8-dimethylpyrano[3,2-g]chromen-4(8H)-one] | 74.3 ± 3.44 | 11.6 ± 1.39 | 6.413 | – | – | 60.5 | – | – | – | – | – | – | −88.4 | −27.2
CC1(C)C=Cc2c(c3c(c4c(=O)c(-c5ccc(O)cc5)coc24)OC(C)(C)C(O)C3)O1 (stereo not drawn) [Kazosajin III, 11-Hydroxy-7-(4-hydroxyphenyl)-2,2,10,10-tetramethyl-11,12-dihydro-2H-dipyrano[2,3-f: 2′,3′-h]chromen-8(10H)-one] | > 100 | 7.16 ± 1.15 | – | – | – | – | – | – | – | – | selective inhibition of MAO-B | – | – | –
C=C(C)C(O)C(=O)c1c2c(c3occ(-c4ccc(O)c(O)c4)c(=O)c3c1O)C=CC(C)(C)O2 (stereo not drawn) [Kazosajin II, 3-(3,4-Dihydroxyphenyl)-5-hydroxy-6-(2-hydroxy-3-methylbut-3-enoyl)-8,8-dimethylpyrano[2,3-f]chromen-4(8H)-one] | 72 ± 3.72 | 4.28 ± 0.67 | 16.829 | – | – | 47.9 | – | – | – | 42.3 | selective inhibition of MAO-B | – | – | –
CC(C)=CCc1c2c(c(O)c3c(=O)c(-c4ccc(O)c(O)c4)coc13)C=CC(C)(C)O2 [Auriculasin (VI), auriculasin] | 46 ± 4.48 | 1.91 ± 0.32 | 24.073 | 8.92 | 86.7 | – | – | – | – | – | selective inhibition of MAO-B | 4.46 | – | –
